Tested on: mixed hyperlipidemia model in SD rat
Assay: Test of the blood lipid-lowering efficacy: serum TC, TG, HDL-C, LDL-C and apo-A1 after 30 days oral administration
Format: in vivo
Settings: positive control, atorvastatin calcium 0.83 mg/Kg oral, high fat diet SD rats
Description: Experiment object: compositions of examples 1 to 4, single component group (500 mg of echium seed oil), and two positive control groups: fish oil group (180 mg of EPA and 120 mg of DHA in each 1000 mg oil fish, purchased from Amway), and atorvastatin calcium group (each tablet was 20 mg containing 10 mg of active ingredient atorvastatin calcium, purchased from Pfizer Pharmaceutical Co., Ltd.).
Reference was made to the test method of adjunctive blood lipid-lowering function in the Technical specification for health care food inspection and evaluation. The SPF grade male SD rats were chosen as the experimental animals. After the adaptation period, an animal model of mixed hyperlipidemia was established, and the rats were randomly divided into groups according to the TC level.
There were three dosage groups, two positive control groups, one blank control group and one model control group. In low-dosage group, the dosage of the test sample was equal to 5 times ([…]) of the recommended amount for human; for the other two dosage groups, the dosages were respectively equal to 10 times (333.33 mg/kg) and 25 times (833.33 mg/kg) of the recommended amount for human. The dosage of the positive control group was equal to 5 times of the recommended amount for human (fish oil: 150 mg/Kg; atorvastatin calcium 0.83 mg/Kg). The blank control group and the model control group were administered with distilled water of the same volume by intragastric gavage. Each of the groups was weighed regularly. 30 days after the administration, blood samples were collected from the rats without fasting, and the serums were separated. TC (total cholesterol), TG (total triglyceride), (high-density lipoprotein cholesterol) and apo-A1 (apolipoprotein A1) were tested. The methods were illustrated in details hereinafter.
Adaptation period: in a barrier system the rats were fed for regular feed and observed for 5 to 7 days.
The rats were randomly divided into 22 groups according to the weight, 6 rats per group. One group of rats was fed with regular feed as the blank control group. The other 21 groups were fed with high fat diet as the model control group. All rats were weighed once a week.
20 days after the model control groups were fed with high fat diet, blood samples (1 to 1.5 mL of blood from the tail vein) were collected from the rats of the blank control group and the model control group without fasting. After the blood collection, the serum were quickly separated and transferred to a new centrifuge tube, and then cryopreserved at −20° C. for test. ELISA test kits for cholesterol, triglyceride, HDL-cholesterol and LDL-cholesterol were used to test the levels of TC, TG, LDL-C and HDL-C in the rat serum. […]

## CC(C)c1c(C(=O)Nc2ccccc2)c(-c2ccccc2)c(-c2ccc(F)cc2)n1CC[C@@H](O)C[C@@H](O)CC(=O)[O-].CC(C)c1c(C(=O)Nc2ccccc2)c(-c2ccccc2)c(-c2ccc(F)cc2)n1CC[C@@H](O)C[C@@H](O)CC(=O)[O-].[Ca+2] [Atorvastatin Calcium, atorvastatin calcium]
  Serum HDL-C, Mean Value ± Standard Deviation: 919.74 ± 150.63 µmol/L
  Serum LDL-C, Mean Value ± Standard Deviation: 853.24 ± 236.19 µmol/L
  Serum total cholesterol (TC), Mean Value ± Standard Deviation: 1117.14 ± 171.07 µmol/L
  Serum triglyceride (TG), Mean Value ± Standard Deviation: 189.71 ± 45.83 µmol/L

Reference: patent US10492518B2, “Blood lipid-lowering composition, method for preparing the same and use thereof” (INFINITUS (CHINA) COMPANY LTD., priority 2018, dated 2019)
